These results are taken from patent US10513521B2, “Compositions and methods for inhibiting BMP” (The Brigham and Women's Hospital, Inc., priority 2014, dated 2019).

The target in one test is ALK3 (Homo sapiens, UniProt P36894). Nature of the test: TR-FRET enzymatic ALK kinase assay, ALK3. Background: In TR-FRET formats the signal depends on donor and acceptor labels being close together.
Another test has as its target T1, ALK5 (Homo sapiens, UniProt P36897).
T1 sequence (P36897 34-503): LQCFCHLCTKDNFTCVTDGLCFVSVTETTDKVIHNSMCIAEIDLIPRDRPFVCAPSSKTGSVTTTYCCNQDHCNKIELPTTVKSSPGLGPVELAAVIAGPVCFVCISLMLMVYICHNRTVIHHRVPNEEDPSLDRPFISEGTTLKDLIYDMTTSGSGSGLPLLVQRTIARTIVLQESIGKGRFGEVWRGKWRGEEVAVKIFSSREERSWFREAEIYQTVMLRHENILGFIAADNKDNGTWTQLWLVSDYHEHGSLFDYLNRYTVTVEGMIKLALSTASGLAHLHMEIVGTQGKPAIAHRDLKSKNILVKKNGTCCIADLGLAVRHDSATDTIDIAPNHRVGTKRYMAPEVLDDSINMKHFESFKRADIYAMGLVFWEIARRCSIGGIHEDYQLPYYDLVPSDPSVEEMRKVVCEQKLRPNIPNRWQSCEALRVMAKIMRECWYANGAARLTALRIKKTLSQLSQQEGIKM
Nature of the test: TR-FRET enzymatic ALK kinase assay, ALK5.

The next test addresses T2, ALK2 (Homo sapiens, UniProt Q04771).
T2 sequence (Q04771 21-509): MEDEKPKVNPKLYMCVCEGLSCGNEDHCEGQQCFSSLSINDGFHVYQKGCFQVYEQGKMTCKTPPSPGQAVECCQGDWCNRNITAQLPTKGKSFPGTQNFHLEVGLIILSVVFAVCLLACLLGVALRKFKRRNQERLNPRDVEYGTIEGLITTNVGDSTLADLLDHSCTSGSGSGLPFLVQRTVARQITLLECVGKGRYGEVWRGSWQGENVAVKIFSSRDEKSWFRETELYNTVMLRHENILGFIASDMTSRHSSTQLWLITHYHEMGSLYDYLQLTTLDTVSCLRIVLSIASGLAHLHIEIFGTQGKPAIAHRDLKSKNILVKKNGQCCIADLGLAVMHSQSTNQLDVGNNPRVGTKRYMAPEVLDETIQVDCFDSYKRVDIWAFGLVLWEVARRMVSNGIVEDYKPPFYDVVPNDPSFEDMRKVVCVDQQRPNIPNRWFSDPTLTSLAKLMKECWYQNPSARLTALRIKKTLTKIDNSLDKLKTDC
Kind of test: TR-FRET enzymatic ALK kinase assay, ALK2.

The target of another test is T3, ALK4 (Homo sapiens, UniProt P36896).
T3 sequence (P36896 24-505): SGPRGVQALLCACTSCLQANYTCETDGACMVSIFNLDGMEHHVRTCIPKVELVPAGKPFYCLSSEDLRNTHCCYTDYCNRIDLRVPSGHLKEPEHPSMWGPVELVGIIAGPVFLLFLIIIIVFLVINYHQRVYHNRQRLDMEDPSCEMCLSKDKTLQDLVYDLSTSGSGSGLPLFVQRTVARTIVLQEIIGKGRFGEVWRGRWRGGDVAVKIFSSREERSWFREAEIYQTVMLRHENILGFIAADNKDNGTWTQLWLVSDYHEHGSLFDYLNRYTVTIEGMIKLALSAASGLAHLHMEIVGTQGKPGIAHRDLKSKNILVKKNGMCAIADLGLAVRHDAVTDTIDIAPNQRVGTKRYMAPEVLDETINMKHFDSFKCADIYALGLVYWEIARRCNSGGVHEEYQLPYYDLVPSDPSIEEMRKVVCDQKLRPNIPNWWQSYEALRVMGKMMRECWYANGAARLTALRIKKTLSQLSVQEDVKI
Nature of the test: TR-FRET enzymatic ALK kinase assay, ALK4.

The target of another test is ALK1 (Homo sapiens, UniProt P37023). Nature of the test: TR-FRET enzymatic ALK kinase assay, ALK1.
A further test concerns the target ALK6 (Homo sapiens, UniProt O00238). Kind of test: TR-FRET enzymatic ALK kinase assay, ALK6.

One may read the IC50 as the point on the concentration scale where inhibition reaches its midpoint. A lower IC50 goes with inhibition by little substance.

Sequence of ALK6 (O00238 14-502): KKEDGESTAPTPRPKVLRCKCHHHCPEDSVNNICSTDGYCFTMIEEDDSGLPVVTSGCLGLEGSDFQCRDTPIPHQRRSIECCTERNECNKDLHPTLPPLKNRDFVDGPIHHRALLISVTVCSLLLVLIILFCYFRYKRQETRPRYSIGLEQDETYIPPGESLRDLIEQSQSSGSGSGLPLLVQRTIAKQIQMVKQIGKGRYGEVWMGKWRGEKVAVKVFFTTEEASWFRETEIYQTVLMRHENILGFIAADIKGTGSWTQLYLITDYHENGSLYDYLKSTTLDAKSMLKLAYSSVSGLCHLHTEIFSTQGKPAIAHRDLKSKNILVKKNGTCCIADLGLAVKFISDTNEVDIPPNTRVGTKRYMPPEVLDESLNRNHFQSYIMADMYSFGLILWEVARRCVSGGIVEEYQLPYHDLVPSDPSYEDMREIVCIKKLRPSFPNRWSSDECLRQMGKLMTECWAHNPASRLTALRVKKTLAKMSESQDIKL
Sequence of ALK1 (P37023 22-503): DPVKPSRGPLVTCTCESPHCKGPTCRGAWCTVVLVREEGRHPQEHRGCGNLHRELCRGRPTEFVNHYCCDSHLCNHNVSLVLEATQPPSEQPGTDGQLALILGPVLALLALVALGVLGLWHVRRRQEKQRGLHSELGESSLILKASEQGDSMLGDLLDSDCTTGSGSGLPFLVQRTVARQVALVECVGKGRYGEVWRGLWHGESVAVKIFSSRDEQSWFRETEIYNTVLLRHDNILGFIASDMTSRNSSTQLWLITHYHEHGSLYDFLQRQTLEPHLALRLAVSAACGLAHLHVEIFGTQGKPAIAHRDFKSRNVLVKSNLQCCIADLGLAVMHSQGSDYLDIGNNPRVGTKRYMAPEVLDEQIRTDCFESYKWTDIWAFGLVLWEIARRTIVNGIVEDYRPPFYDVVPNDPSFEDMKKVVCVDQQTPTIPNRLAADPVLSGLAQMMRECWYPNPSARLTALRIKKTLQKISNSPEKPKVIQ
Sequence of ALK3 (P36894 24-532): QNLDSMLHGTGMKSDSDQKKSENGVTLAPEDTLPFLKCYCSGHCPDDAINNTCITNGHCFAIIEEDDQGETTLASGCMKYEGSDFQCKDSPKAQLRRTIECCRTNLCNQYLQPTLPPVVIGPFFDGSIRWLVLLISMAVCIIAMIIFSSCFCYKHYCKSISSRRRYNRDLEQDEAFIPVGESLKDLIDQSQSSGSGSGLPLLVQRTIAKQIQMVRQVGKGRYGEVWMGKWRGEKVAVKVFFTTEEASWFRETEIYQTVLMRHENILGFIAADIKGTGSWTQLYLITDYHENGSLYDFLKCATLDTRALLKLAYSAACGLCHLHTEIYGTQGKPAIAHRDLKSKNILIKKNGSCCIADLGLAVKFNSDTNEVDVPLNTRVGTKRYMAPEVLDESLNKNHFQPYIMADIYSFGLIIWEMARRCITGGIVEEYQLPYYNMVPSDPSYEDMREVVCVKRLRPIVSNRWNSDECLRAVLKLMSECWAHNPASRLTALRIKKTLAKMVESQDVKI
Description for ALK1: (§1) Briefly, the ALKs enzymatic assay was initiated by dispense 2.5 μl enzyme in 1× kinase reaction buffer. The assay plate was then added with compounds followed by incubation at room temperature for 10 minutes. Then 2.5 μl/well substrate was added.
Description for ALK2: as §1
Description for ALK3: as §1
Description for ALK4: as §1
Description for ALK5: Six ALK kinase enzyme assays were developed for determination of compound activities on ALK1, ALK2, ALK3, ALK4, ALK5 and ALK6.
as §1
Description for ALK6: as §1

As to `C[C@H](O)c1cccc(-c2cnn3cc(-c4ccc(OC5(CN6CCCC6)CC5)cc4)cnc23)c1` [Compound 198, (S)-1-(3-(6-(4-(1-(pyrrolidin-1-ylmethyl)cyclopropoxy)phenyl)pyrazolo[1,5-a]pyrimidin-3-yl)phenyl)ethanol], the IC50 was 1.2 µM against ALK3; over 10 µM on ALK5; 0.03 µM at ALK2; over 10 µM at ALK4; 0.71 µM against ALK1; over 10 µM at ALK6.
As to `C[S+](=O)([O-])c1cccc(-c2cnn3cc(-c4ccc(OC5(CN6CCCC(O)C6)CC5)cc4)cnc23)c1` (stereo not drawn) [Compound 186, 1-((1-(4-(3-(3-(methylsulfonyl)phenyl)pyrazolo[1,5-a]pyrimidin-6-yl)phenoxy)cyclopropyl)methyl)piperidin-3-ol], the IC50 at ALK3 was 0.5 µM; against ALK5, over 10 µM; at ALK2, 0.02 µM; against ALK4, over 10 µM; against ALK1, 0.27 µM; on ALK6, over 10 µM.
Consider `CS(=O)(=O)c1cc(-c2cnn3cc(-c4ccc(CCN5CCCCC5)cc4)cnc23)cc(C(F)(F)F)c1` [Compound 172, 3-(3-(methylsulfonyl)-5-(trifluoromethyl)phenyl)-6-(4-(2-(piperidin-1-yl)ethyl)phenyl)pyrazolo[1,5-a]pyrimidine], for which the IC50 at ALK3 is over 10 µM; at ALK5, over 10 µM; against ALK2 it was 1.2 µM; against ALK4 it was over 10 µM; against ALK1, over 10 µM; on ALK6, over 10 µM.
In the case of `CS(=O)(=O)c1cccc(-c2cnn3cc(-c4ccc(OC5(CN6CCC(O)CC6)CC5)cc4)cnc23)c1` [Compound 194, 1-((1-(4-(3-(3-(methylsulfonyl)phenyl)pyrazolo[1,5-a]pyrimidin-6-yl)phenoxy)cyclopropyl)methyl)piperidin-4-ol], the IC50 against ALK3 is 0.87 µM; against ALK5 it was over 10 µM; on ALK2, 0.02 µM; against ALK4, over 10 µM; against ALK1, 0.23 µM; against ALK6, over 10 µM.
Turning to `CS(=O)(=O)c1cccc(-c2cnn3cc(-c4ccc(OC5(CN6CCC(O)C6)CC5)cc4)cnc23)c1` (stereo not drawn) [Compound 195, 1-((1-(4-(3-(3-(methylsulfonyl)phenyl)pyrazolo[1,5-a]pyrimidin-6-yl)phenoxy)cyclopropyl)methyl)pyrrolidin-3-ol], the IC50 is 0.97 µM against ALK3; over 10 µM at ALK5; 0.022 µM on ALK2; over 10 µM against ALK4; 0.27 µM against ALK1; over 10 µM against ALK6.
Consider `C[C@H](O)c1cccc(-c2cnn3cc(-c4ccc(OC5(CN6CCC7(CC6)CNC7)CC5)cc4)cnc23)c1` [Compound 197, (S)-1-(3-(6-(4-(1-(2,7-diazaspiro[3.5]nonan-7-ylmethyl)cyclopropoxy)phenyl)pyrazolo[1,5-a]pyrimidin-3-yl)phenyl)ethanol], for which the 50% inhibitory concentration (IC50) was 2 µM on ALK3; over 10 µM against ALK5; 0.052 µM on ALK2; over 10 µM against ALK4; 0.5 µM on ALK1; over 10 µM on ALK6.
Regarding `NC(c1ccc(-c2cnn3cc(-c4ccc(OCCN5CCCC5)cc4)cnc23)c2ccccc12)C(F)(F)F` (stereo not drawn) [Compound 162, 2,2,2-trifluoro-1-(4-(6-(4-(2-(pyrrolidin-1-yl)ethoxy)phenyl)pyrazolo[1,5-a]pyrimidin-3-yl)naphthalen-1-yl)ethanamine], the IC50 against ALK3 is over 10 µM; on ALK5, over 10 µM; at ALK2, 8.1 µM; against ALK4, over 10 µM; against ALK1, over 10 µM; against ALK6, over 10 µM.
For `NC(c1cccc(-c2cnn3cc(-c4ccc(OCCN5CCCC5)cc4)cnc23)c1)C(F)(F)F` (stereo not drawn) [Compound 161], the IC50 on ALK3 is 9.4 µM; at ALK5 it was over 10 µM; against ALK2 it was 0.15 µM; at ALK4 it was over 10 µM; on ALK1 it was 1.6 µM; against ALK6, over 10 µM.
With `NS(=O)(=O)c1ccc(-c2cnn3cc(-c4ccc(OC5(CN6CCCC6)CC5)cc4)cnc23)c2ccccc12` [Compound 207, 4-(6-(4-(1-(pyrrolidin-1-ylmethyl)cyclopropoxy)phenyl)pyrazolo[1,5-a]pyrimidin-3-yl)naphthalene-1-sulfonamide], the IC50 at ALK3 was over 10 µM; on ALK5 it was over 10 µM; at ALK2, 0.016 µM; at ALK4 it was over 10 µM; against ALK1 it was 0.17 µM; against ALK6 it was over 10 µM.
For `NC(c1cccc(-c2cnn3cc(-c4ccc(OC5(CN6CCC(O)CC6)CC5)cc4)cnc23)c1)C(F)(F)F` (stereo not drawn) [Compound 180, 1-((1-(4-(3-(3-(1-amino-2,2,2-trifluoroethyl)phenyl)pyrazolo[1,5-a]pyrimidin-6-yl)phenoxy)cyclopropyl)methyl)piperidin-4-ol], the IC50 at ALK3 is 3.8 µM; on ALK5 it was over 10 µM; at ALK2, 0.062 µM; at ALK4 it was over 10 µM; on ALK1, 1.3 µM; against ALK6 it was over 10 µM.
With `CC(O)c1cccc(-c2cnn3cc(-c4ccc(C(F)(F)CN5CCCCC5)cc4)cnc23)c1` (stereo not drawn) [Compound 127, 1-(3-(6-(4-(1,1-difluoro-2-(piperidin-1-yl)ethyl)phenyl)pyrazolo[1,5-a]pyrimidin-3-yl)phenyl)ethanol], the IC50 against ALK3 was over 10 µM; on ALK5 it was over 10 µM; against ALK2 it was 1.7 µM; on ALK4, over 10 µM; against ALK1, 4.8 µM; at ALK6, over 10 µM.
Consider `CC(O)c1cccc(-c2cnn3cc(-c4ccc(C5CCCCN5)cc4)cnc23)c1` (stereo not drawn) [Compound 135, 1-(3-(6-(4-(piperidin-2-yl)phenyl)pyrazolo[1,5-a]pyrimidin-3-yl)phenyl)ethanol], for which the IC50 is over 10 µM against ALK3; over 10 µM at ALK5; 0.15 µM against ALK2; over 10 µM at ALK4; 0.67 µM against ALK1; over 10 µM on ALK6.
For the molecule `CS(=O)(=O)c1cccc(-c2cnn3cc(-c4ccc(C5CCCNC5)cc4)cnc23)c1` (stereo not drawn) [Compound 139, 3-(3-(methylsulfonyl)phenyl)-6-(4-(piperidin-3-yl)phenyl)pyrazolo[1,5-a]pyrimidine], the IC50 at ALK3 was 4.8 µM; against ALK5 it was over 10 µM; against ALK2, 0.089 µM; on ALK4, over 10 µM; against ALK1, 0.37 µM; against ALK6, over 10 µM.
Take `CS(=O)(=O)c1cccc(-c2cnn3cc(-c4ccc(CCN5CCCC5)cc4)cnc23)c1` [Compound 128, 3-(3-(methylsulfonyl)phenyl)-6-(4-(2-(pyrrolidin-1-yl)ethyl)phenyl)pyrazolo[1,5-a]pyrimidine]: the half-inhibitory concentration (IC50) at ALK3 is 6.3 µM; against ALK5, over 10 µM; against ALK2, 0.08 µM; against ALK4, over 10 µM; on ALK1, 0.39 µM; against ALK6, over 10 µM.
For `C[C@H](O)c1cccc(-c2cnn3cc(-c4ccc(OC5(CN6C7CCC6CC7)CC5)cc4)cnc23)c1` [Compound 196, (S)-1-(3-(6-(4-(1-(7-azabicyclo[2.2.1]heptan-7-ylmethyl)cyclopropoxy)phenyl)pyrazolo[1,5-a]pyrimidin-3-yl)phenyl)ethanol], the IC50 was 2.5 µM on ALK3; over 10 µM at ALK5; 0.024 µM on ALK2; over 10 µM on ALK4; 0.31 µM on ALK1; 8.9 µM against ALK6.
